Holding throughout (assay): Competitive radioligand binding, 125I-Tyr-SRIF 14, membrane preparations
Test [1] concerns the target human somatostatin receptor SSTR3 (Homo sapiens (Human), UniProt P32745). The settings on record: competitive binding vs 125I-Tyr-SRIF 14, human SSTR3 membranes; read-out: SST3. The method, then: (§1) Competitive radioligand binding experiments were performed using MEMBRANE TARGET Systems (Perkin-Elmer, Boston, Mass.) for human somatostatin receptors: SSTR1 (ES-520-M400UA), SSTR2A (ES-521-M400UA), SSTR3 (ES523-M400UA), SSTR4 (ES-524-M400UA) and SSTR5 (ES-522-M400UA) receptors. (See Table 1). Respective membrane receptor preparations were prepared in assay buffer (25 mM HEPES, 10 mM MgCl2, 1 mM CaCl2, 0.5% BSA, pH=7.4) at a 1:150 dilution. Binding assays were performed using 1251-Tyr-SRIF 14 (Perkin-Elmer, NEX 3890) dissolved in 1 mM HCl. Binding assays were performed in triplicate for each concentration of ligand in a total volume of 200 μL radioligand (25 μL ligand, 25 μL radioligand, 150 μL receptors) and incubated at room temperature for 90 minutes using a shaking table. Binding was terminated by filtration through GF/B glass fiber filters that were presoaked in 0.5% polyethyleneimine for a minimum of 4 hours. Filters were washed 9× with 1000 μL ice cold wash buffer (50 mM Tris-HCl, pH=7.4, 0.2% BSA). Filters were scored, transferred into plastic test tubes and counted in a gamma counter (Wizard2, Perkin-Elmer). Determination of the Ki for each compound was performed using non-linear regression with GraphPad PRISM-5 software (GraphPad Software, Inc., La Jolla, Calif.).

Test [2] addresses human somatostatin receptor SSTR1 (Homo sapiens (Human), UniProt P30872). The settings on record: competitive binding vs 125I-Tyr-SRIF 14, human SSTR1 membranes; read-out: SST1. The method, then: as §1, with “Respective” for “Competitive radioligand binding experiments were performed using MEMBRANE TARGET Systems (Perkin-Elmer, Boston, Mass.) for human somatostatin receptors: SSTR1 (ES-520-M400UA), SSTR2A (ES-521-M400UA), SSTR3 (ES523-M400UA), SSTR4 (ES-524-M400UA) and SSTR5 (ES-522-M400UA) receptors. (See Table 1). Respective”, “Binding assays were performed using 1251-Tyr-SRIF 14 (Perkin-Elmer, NEX 3890) dissolved in 1 mM HCl.” left out

For test [3], the target named is human somatostatin receptor SSTR5 (Homo sapiens (Human), UniProt P35346). The settings on record: competitive binding vs 125I-Tyr-SRIF 14, human SSTR5 membranes; read-out: SST5. As for the experimental part: as §1, with “Respective” for “Competitive radioligand binding experiments were performed using MEMBRANE TARGET Systems (Perkin-Elmer, Boston, Mass.) for human somatostatin receptors: SSTR1 (ES-520-M400UA), SSTR2A (ES-521-M400UA), SSTR3 (ES523-M400UA), SSTR4 (ES-524-M400UA) and SSTR5 (ES-522-M400UA) receptors. (See Table 1). Respective”, “Binding assays were performed using 1251-Tyr-SRIF 14 (Perkin-Elmer, NEX 3890) dissolved in 1 mM HCl.” left out

Test [4] addresses human somatostatin receptor SSTR2A (Homo sapiens (Human), UniProt P30874). The settings on record: competitive binding vs 125I-Tyr-SRIF 14, human SSTR2A membranes; read-out: SST2. The method, then: as §1, with “Respective” for “Competitive radioligand binding experiments were performed using MEMBRANE TARGET Systems (Perkin-Elmer, Boston, Mass.) for human somatostatin receptors: SSTR1 (ES-520-M400UA), SSTR2A (ES-521-M400UA), SSTR3 (ES523-M400UA), SSTR4 (ES-524-M400UA) and SSTR5 (ES-522-M400UA) receptors. (See Table 1). Respective”, “Binding assays were performed using 1251-Tyr-SRIF 14 (Perkin-Elmer, NEX 3890) dissolved in 1 mM HCl.” left out

pKi: −log10 of the molar value.

The record followed here is US11136312B2, “3,4,5-trisubstituted-1,2,4-triazoles and 3,4,5-trisubstituted-3-thio-1,2,4-triazoles and uses thereof” (Board of Trustees of Southern Illinois University, priority 2017, dated 2021).

human somatostatin receptor SSTR2A, sequence (P30874 whole entry): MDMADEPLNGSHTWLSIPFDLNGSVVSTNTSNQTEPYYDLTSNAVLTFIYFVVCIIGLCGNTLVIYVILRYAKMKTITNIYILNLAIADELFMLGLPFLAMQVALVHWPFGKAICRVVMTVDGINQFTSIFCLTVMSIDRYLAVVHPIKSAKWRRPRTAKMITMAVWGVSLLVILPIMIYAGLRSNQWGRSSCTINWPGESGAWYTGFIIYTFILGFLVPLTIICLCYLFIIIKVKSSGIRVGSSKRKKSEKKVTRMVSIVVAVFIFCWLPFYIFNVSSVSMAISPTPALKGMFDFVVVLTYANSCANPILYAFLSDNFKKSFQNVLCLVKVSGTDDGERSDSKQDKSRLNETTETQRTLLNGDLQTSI

For `Fc1ccc(Cc2nnc(Cc3c[nH]c4cc(F)ccc34)n2CCCc2c[nH]cn2)cc1` [SK-I-91, 3-((4-(3-(1H-imidazol-4-yl)propyl)-5-(4-fluorobenzyl)-4H-1,2,4-triazol-3-yl)methyl)-6-fluoro-1H-indole], the pKi was below 5.00 in test [1], 6.33 in test [2], below 5.00 in test [3] and 5.40 in test [4].
`FC(F)(F)c1cccc(Cc2nnc(Cc3c[nH]c4ccccc34)n2CCCc2c[nH]cn2)c1` [MM-I-66, 3-((4-(3-(1H-imidazol-4-yl)propyl)-5-(3-(trifluoromethyl)benzyl)-4H-1,2,4-triazol-3-yl)methyl)-1H-indole]: the pKi in test [1] was below 5.00; in test [2] it was 6.23; in test [3], below 5.00; in test [4], 5.63.
Turning to `COc1ccc(Cc2nnc(Cc3c[nH]c4cc(F)ccc34)n2CCCc2c[nH]cn2)cc1` [SK-I-105, 3-((4-(3-(1H-imidazol-4-yl)propyl)-5-(4-methoxybenzyl)-4H-1,2,4-triazol-3-yl)methyl)-6-fluoro-1H-indole], the pKi in test [1] was below 5.00; in test [2] it was 5.97; in test [3], below 5.00; in test [4], 5.28.
`CC(C)(C)Cc1nnc(Cc2c[nH]c3cc(F)ccc23)n1CCCc1c[nH]cn1` [SK-I-119, 3-((4-(3-(1H-imidazol-4-yl)propyl)-5-neopentyl-4H-1,2,4-triazol-3-yl)methyl)-6-fluoro-1H-indole]: the pKi in test [1] is below 5.00; in test [2], 5.36; in test [3] it was below 5.00; in test [4], below 5.00.
In the case of `c1ccc(Cc2nnc(CCc3c[nH]c4ccccc34)n2CCCc2c[nH]cn2)cc1` [SM-I-26, 3-(2-(4-(3-(1H-Imidazol-4-yl)propyl)-5-benzyl-4H-1,2,4-triazol-3-yl)ethyl)-1H-indole], the pKi in test [1], in test [2], in test [3] and in test [4] was below 5.00 throughout.
`COc1ccc2[nH]cc(Cc3nnc(Cc4cccc(C(F)(F)F)c4)n3CCCc3c[nH]cn3)c2c1` [SK-I-57, 3-((4-(3-(1H-imidazol-4-yl)propyl)-5-(3-(trifluoromethyl)benzyl)-4H-1,2,4-triazol-3-yl)methyl)-5-methoxy-1H-indole]: the pKi in test [1] was 5.95; in test [2] it was 6.44; in test [3], below 5.00; in test [4] it was 5.77.
The like results for `Cn1cc(CCc2nnc(Cc3ccc(Cl)c(Cl)c3)n2CCCc2c[nH]cn2)c2ccccc21` [SM-I-60, 3-(2-(4-(3-(1H-Imidazol-4-yl)propyl)-5-(3,4-dichlorobenzyl)-4H-1,2,4-triazol-3-yl)ethyl)-1-methyl-1H-indole] were, in that order, 5.16, 5.50, below 5.00 and below 5.00.
The like results for `COc1cccc(Cc2nnc(CCc3c[nH]c4ccccc34)n2CCCc2c[nH]cn2)c1` [BN-VI-61, 3-(2-(4-(3-(1H-Imidazol-4-yl)propyl)-5-(3-methoxybenzyl)-4H-1,2,4-triazol-3-yl)ethyl)-1H-indole] were, in that order, below 5.00, below 5.00, below 5.00 and below 5.00.
The like results for `COc1ccc2[nH]cc(Cc3nnc(Cc4ccc(F)cc4)n3CCCc3c[nH]cn3)c2c1` [SK-I-55, 3-((4-(3-(1H-imidazol-4-yl)propyl)-5-(4-fluorobenzyl)-4H-1,2,4-triazol-3-yl)methyl)-5-methoxy-1H-indole] were, in that order, below 5.00, 5.99, below 5.00 and 5.26.
For `Fc1cc(F)cc(Cc2nnc(CCc3c[nH]c4ccccc34)n2CCCc2c[nH]cn2)c1` [SM-I-55, 3-(2-(4-(3-(1H-Imidazol-4-yl)propyl)-5-(3,5-difluorobenzyl)-4H-1,2,4-triazol-3-yl)ethyl)-1H-indole], the pKi in test [1], in test [2], in test [3] and in test [4] was below 5.00 in each case.
